The source of these data is BindingDB's records for doi:10.1021/jm020072w (University of California, 2002).

The target of the test is juvenile hormone esterase (Trichoplusia ni). In words: In vitro inhibition of Trichoplusia Juvenile Hormone Esterase.
As a reminder, the IC50 is the concentration that inhibits the measured activity by half. Low readings indicate inhibition by little substance, high ones a need for much substance. `CCCCCCC#CC(=O)C(F)(F)F` displayed an IC50 of 0.398 µM.

In the case of `CCCCCCCCC(=O)C(F)(F)F`, the IC50 stood at 6.76 µM.

Turning to `CCCCCCC=CC(=O)C(F)(F)F`, the half-maximal inhibitory concentration (IC50) came out at 79.4 µM.

Turning to `CCCCCCOCC(C)=O`, the midpoint of inhibition, the IC50, lay at 490 µM.

In the case of `CCCCCC[Se](=O)CC(=O)C(F)(F)F` (configuration not stated), half-maximal inhibition (IC50) required 0.000537 µM.

On to `CCCCCCCCC(=O)C(F)F`, for which the IC50 came out at 10 µM.

As to `CCCCCCOCC(=O)C(F)(F)F`, the IC50 was 0.0832 µM.
